The values that follow come from PubChem BioAssay AID179 (DTP/NCI, 2004).

For orientation: EC50 means the concentration at which the effect is half-maximal. Broadly, the IC50 is the concentration needed to halve the response being measured. Read a low IC50 as greater potency.

This assay has as its system CEM cells HIV-1 protection, formazan growth assay. Description: NCI AIDS Antiviral Assay. Particulars: for IC50: measured here: growth of uninfected CEM cells. An outline of the steps:
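Five concentrations of each compound were applied to infected and uninfected human CEM cells. Protection from HIV-1 was judged from growth measured with a soluble formazan assay.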

Calls of active or inactive are those of the source.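 How the source made its calls: active means compounds giving half or more protection of infected cells from virus-caused growth loss, again on retest; inactive means the rest.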

For the compound `COc1ccc2c(c1)O[C@@H]1c3ccc(OC)cc3OC[C@H]21`, the outcome was inactive. Regarding `Clc1ccc(C(SCc2ccccc2)SCc2ccccc2)cc1`, the EC50 was > 200 µM and the concentration for half-maximal inhibition (IC50) is > 200 µM.

Regarding `CC(C)CCCC(C)[C@H]1CC[C@H]2[C@@H]3CC[C@H]4C[C@@H](CCC=C(c5cc(Cl)c(O)c(C(=O)OC(C)C)c5)c5cc(Cl)c(O)c(C(=O)OC(C)C)c5)CC[C@]4(C)[C@H]3CC[C@]12C` (stereo partly drawn), the EC50 was 67.6 µM and the half-maximal inhibitory concentration (IC50) is 151 µM.

On to `COc1ccc(-n2nc3c(N)nnc-3nc2-c2ccccc2)cc1`, for which the EC50 is > 4.07 µM and the IC50 was > 4.07 µM. As for `NC(=O)NN=C1CCC(CC2CCCCC2)CC1` (stereo not drawn), the EC50 is > 200 µM and the IC50 was 174 µM.

As for `CC1OS(=O)(=O)CS(=O)(=O)OC1C` (stereo not drawn), the EC50 was > 1070 µM and the concentration for half-maximal inhibition (IC50) turned out to be 1020 µM. As to `O=C1c2ccccc2C(=O)N1CCN(CCN1C(=O)c2ccccc2C1=O)Cc1ccccc1`, the result was inactive. Regarding `COc1ccc(C(Nc2nc3c(ncn3COCCOP(=O)(OCOC(=O)C(C)(C)C)OCOC(=O)C(C)(C)C)c(=O)[nH]2)(c2ccccc2)c2ccccc2)cc1`, the EC50 was > 100 µM and the IC50 was 8.71 µM. As for `O=S1(=O)NNC(=NCc2ccc(Cl)cc2)c2ccccc21`, the outcome was inactive. Consider `Cc1nc(C(N)=S)sc1C(=O)CC(=O)C(=O)Nc1nc2ccccc2[nH]1`, for which the EC50 is > 93.3 µM and the IC50 is > 93.3 µM. Regarding `COC(=O)[C@@H]1OC(C)(c2ccccc2)O[C@H]1C(=O)OC`, the EC50 is > 200 µM and the 50% inhibitory concentration (IC50) was > 200 µM. As for `CCNC(=S)N/N=C(\C)c1cccc(C)n1`, the EC50 is > 2 µM and the IC50 was found to be 1.1 µM.

With `CN1CCC(c2ccccc2)(c2ccccc2)C(O)C1` (stereo not drawn), the outcome was inactive. Take `Cn1c(C(=O)/C=C/c2ccc([N+](=O)[O-])cc2)nc2ccccc21`: the EC50 was > 200 µM and the IC50 amounted to 33.1 µM. On the same counts, the results for `CSC(=S)Nc1cccc(C)n1` are > 200 µM and 102 µM. On the same counts, the results for `COc1ccccc1NCc1nnc(CCCCCCCCc2nnc(CNc3ccccc3OC)o2)o1` are > 200 µM and > 200 µM.

As for `N/N=C1\C(=O)N(Cc2ccccc2)C(=O)C1C(=O)NCc1ccccc1` (stereo not drawn), the EC50 was > 7.76 µM and the IC50 is > 7.76 µM. On to `CC1(O)C(O)C(O)C1(O)CO` (stereo not drawn) (tested in a mixture with another compound), for which the EC50 is > 200 µM and the IC50 was > 200 µM.

For `O=C(CC1(O)C(=O)Nc2c(Cl)cccc21)c1ccccc1` (stereo not drawn), the EC50 was > 832 µM and the concentration for half-maximal inhibition (IC50) was 158 µM. On the same counts, the results for `O=P(CCOc1ccccc1OCCP(=O)(c1ccccc1)c1ccc2c(c1)OCCOCCOCCOCCO2)(c1ccccc1)c1ccc2c(c1)OCCOCCOCCOCCO2` (stereo not drawn) are > 263 µM and > 263 µM.

Take `COc1ccccc1NC(=O)/C(=C/n1c(=S)[nH]c2cc(C)ccc21)C(C)=O`: the EC50 was > 200 µM and the IC50 was determined as 151 µM. On the same counts, the results for `CN(C)c1ccc(/C=C(\C#N)c2ccc(Cl)cc2)c(Cl)c1` are > 50.1 µM and 4.9 µM. On the same counts, the results for `OC1c2ccccc2[C@@H]2[C@H]1[C@@H](c1ccccc1)C1(Cc3ccccc3C1O)[C@H]2c1ccccc1` (stereo partly drawn) are > 200 µM and 9.12 µM. Regarding `CC1=N/C(=C\c2cccc(Br)c2)C(=O)O1`, the EC50 was > 97.7 µM and the IC50 was 66.1 µM. For `O=S(=O)(O)CCCCBr`, the EC50 is > 200 µM and the IC50 is > 200 µM. For `CCOc1ncnc2ccc(Cl)c(I)c12`, the EC50 was > 77.6 µM and the IC50 is > 77.6 µM. On to `Cc1cc2c(C)nn(Cc3ccc(Cl)cc3Cl)c2c(C#N)c1C`, for which the EC50 was > 20.9 µM and the IC50 is > 20.9 µM.

Consider `COc1ccc(Nc2nc3ccc(C(F)(F)F)cc3nc2C(=O)O)cc1`, for which the EC50 was > 200 µM and the concentration for half-maximal inhibition (IC50) came to 20.4 µM.

For `CCSc1nnc(Sc2c3ccccc3nc3ccccc23)s1`, the EC50 is > 200 µM and the IC50 was 2.82 µM.

As to `Nc1ncnc2c1ncn2C(=O)NC12CC3CC(CC(C3)C1)C2`, the EC50 is > 100 µM and the IC50 is > 100 µM. Take `CN=c1ss/c(=N\C(=S)N(C)C)n1C1CCCCC1`: the outcome was inactive. As to `CCN(CCCl)CCNc1c2ccccc2nc2ccc(OC)cc12`, the outcome was inactive. The same measure, in the same setting: under `O=C1C(c2ccc(Br)cc2)=[N+]([O-])c2ccccc21` stands “inactive”. `C=CCNC(=O)N(CCCC(NC(C)=O)C(=O)NCc1ccccc1)Cc1ccccc1` (stereo not drawn): the EC50 was > 575 µM and the IC50 was > 575 µM.

For the compound `O=C1N=C2N=C(c3ccc(Cl)cc3)N(c3ccc(Cl)cc3)N2Sc2ccccc21`, the EC50 was > 11.2 µM and the 50% inhibitory concentration (IC50) is > 11.2 µM. As for `O=[N+]([O-])C(=C/c1cccs1)/C(=C\c1cccs1)[N+](=O)[O-]`, the EC50 was > 200 µM and the IC50 came out at 1.55 µM.

In the case of `O=c1c2cc([N+](=O)[O-])ccc2n2n1Cc1ccccc1C2`, the EC50 is > 200 µM and the half-inhibitory concentration (IC50) was > 200 µM. Regarding `O=C1NC(N/N=C\C(O)C(O)C(O)C(O)CO)=N/C1=C\c1ccc(Cl)cc1` (stereo not drawn), the EC50 was > 200 µM and the 50% inhibitory concentration (IC50) stood at 33.9 µM. For the compound `O=C1CNC(=O)c2c(ncn2C2OC(CO)C(O)C2O)N1` (stereo not drawn), the EC50 was > 214 µM and the half-inhibitory concentration (IC50) was > 214 µM. `NC1=NN(c2ccccc2)C(=O)C1C(=O)C(=O)Nc1ccccc1` (stereo not drawn): the outcome was inactive. With `CC(C)(C)C(=O)CS(=O)(=O)O`, the EC50 is > 200 µM and the IC50 is > 200 µM. On to `COc1c(C(=O)/C(=N/Nc2ccc(C(=O)O)cc2)C(C)=O)c(O)cc2occc12`, for which the EC50 is > 200 µM and the IC50 amounted to 110 µM. For `CNC(=O)OCn1cnc(Cl)c1Cl`, in that order: > 200 µM and > 200 µM. As to `CCC12CCCN(C1)C(=O)Cc1c([nH]c3ccccc13)C(=O)C2` (stereo not drawn), the EC50 is > 8.13 µM and the IC50 is > 8.13 µM. As to `O=C1CC(c2ccccc2)C(c2ccccc2)C1=O` (stereo not drawn), the EC50 was > 129 µM and the half-inhibitory concentration (IC50) amounted to 52.5 µM. For `CC(C)S(=O)(=O)c1s[nH]c(=O)c1-c1ccccc1`, in that order: > 178 µM and > 178 µM. For the compound `Cc1c(C#N)c(=N)oc2ccccc12`, the EC50 is > 200 µM and the IC50 is 115 µM. `O=C1c2ccccc2C(=O)c2sc(Nc3cccc(Cl)c3)nc21`: the EC50 is > 5.89 µM and the IC50 stood at 3.39 µM.

Regarding `N#CNc1nc(C(=O)Nc2ccc(Cl)cc2)cc(-c2ccccc2)n1`, the EC50 was > 355 µM and the IC50 is > 355 µM.

As to `CCOC(=O)P(=O)(O)c1ccc(N(C)Cc2ccccc2)cc1`, the EC50 is > 200 µM and the IC50 was > 200 µM.

With `O=C(O)CCC(=O)OCCNCCOC(=O)CCC(=O)O`, the outcome was inactive. Consider `CC(=O)/C(=C/n1c(=S)[nH]c2ccc([N+](=O)[O-])cc21)C(=O)Nc1ccc([N+](=O)[O-])cc1`, for which the EC50 was > 200 µM and the IC50 came to 33.1 µM.

As to `CC(C)OP(=O)(CCC(=O)C1(O)CCC2C3CCC4=CC(=O)CCC4(C)C3CCC21C)OC(C)C` (stereo not drawn), the EC50 was > 200 µM and the half-inhibitory concentration (IC50) was 32.4 µM. On the same counts, the results for `COc1ccc([C@@]2(O)c3c(ccc(O)c3OC)[C@H]2OC)c(OC)c1` are > 15.8 µM and 9.33 µM. As for `CC1(C)CC(=O)c2c(oc3cc(O)c(O)cc23)C1`, the result was inactive.

In the case of `Cc1cn([C@H]2C[C@H](NC(=O)N(O)C[C@H]3O[C@@H](n4cc(C)c(=O)[nH]c4=O)C[C@@H]3O)[C@@H](CO)O2)c(=O)[nH]c1=O`, the EC50 is > 200 µM and the half-inhibitory concentration (IC50) was > 200 µM. As for `CCOCN1COCN(C)C1=O`, the EC50 was > 1450 µM and the IC50 is > 1450 µM. For `S=c1[nH]nc2ccccn12`, the EC50 is > 200 µM and the IC50 was > 200 µM. Turning to `COc1nc2c(c(=O)n1C)N[C@@H]1[C@@H](O)[C@H](O)CO[C@@H]1N2`, the EC50 was > 200 µM and the IC50 is > 200 µM. On to `Cc1cc2nc3c(C(OC4OC(CO)C(O)C(O)C4O)C(O)CO)nn(-c4ccc(F)cc4)c3nc2cc1C` (stereo not drawn), for which the outcome was inactive. `C[C@H](CCc1nc2ccccc2n1CCN(C)C)[C@H]1CC[C@H]2[C@@H]3CC[C@@H]4C[C@H](O)CC[C@]4(C)[C@H]3CC[C@]12C`: the EC50 is 1.55 µM and the half-inhibitory concentration (IC50) is 4.79 µM.

With `CCOc1ccc(Nc2nc(C)c(C(=O)/C=C/c3ccc(Cl)cc3Cl)s2)cc1`, the EC50 was > 22.9 µM and the IC50 worked out at 20 µM. On the same counts, the results for `CNP1(NC)=NP(NC)(NC)=NP(NC)(NC)=NP(NC)(NC)=N1` are > 3.47 µM and > 3.47 µM. Turning to `S=C1CCSc2c(ccc3ccccc23)N1`, the EC50 was > 200 µM and the IC50 amounted to 166 µM. As to `Cn1cc(C2(C)CC(C)(C)c3c2n(C)c2ccccc32)c2ccccc21` (stereo not drawn), the EC50 was > 55 µM and the half-inhibitory concentration (IC50) was 47.9 µM. Turning to `NS(=O)(=O)c1nnc(NS(=O)(=O)c2ccccc2C(=O)O)s1`, the EC50 is > 200 µM and the IC50 is > 200 µM. As for `COc1ccc(OC)c(NCC(=O)Nn2cnc3ccc(S(=O)(=O)Nc4cc(OC)ccc4OC)cc3c2=O)c1`, the EC50 is > 200 µM and the concentration for half-maximal inhibition (IC50) worked out at 33.9 µM. With `CC12CCC(C(Br)C1=O)C2(C)CS(=O)(=O)O` (stereo not drawn), the EC50 was > 200 µM and the concentration for half-maximal inhibition (IC50) was > 200 µM.

For `CC(=O)N(CC(=O)C(=O)NNc1ccoc1)c1ccc(Cl)cc1`, the EC50 was > 200 µM and the 50% inhibitory concentration (IC50) was > 200 µM. Consider `N#C/C(=C\c1c(Cl)cccc1Cl)c1nc2ccccc2[nH]1`, for which the EC50 was > 200 µM and the concentration for half-maximal inhibition (IC50) is 24.5 µM.

Take `COC1=CC(=O)c2cc(C)cc(-c3cc4ccc(=O)oc4cc3OC)c2C1=O`: the outcome was inactive. Consider `c1ccc([CH2][Sn]([CH2]c2ccccc2)([O]c2cccc3cccnc23)[O]c2cccc3cccnc23)cc1`, for which the outcome was inactive. Regarding `COc1ccc(C2c3cc4c(cc3OC(N3CCOCC3)C2C)OCO4)c(OC)c1` (stereo not drawn), the EC50 was > 200 µM and the IC50 came out at 3.31 µM.
